Assay results taken from US4228124A, “Fumigating method and apparatus” (priority 1979, dated 1980).

Test: effective fugacity rate on heating with hot air current from ring heater and fan (FIG. 1 apparatus)
Format: physicochemical
Details: Table 5, Comparative Example 1: without blowing agent
Protocol: This invention will be described below in greater detail with reference to examples, in which the effective fugacity rates of active ingredients are determined by volatilizing the ingredient within a closed container, passing the air within the container through a solvent which completely dissolves the active ingredients, such as benzene, acetone, water, chloroform or dichloromethane to cause the solvent to absorb the vaporized ingredient in the air, concentrating the solvent and subjecting the concentrate to gas chromatography. The fugacity rate is expressed in terms of the ratio in percent of the quantity of the vaporized active ingredient to the quantity of the ingredient initially admixed with a blowing agent.
Each of the specimen mixtures of insecticide and blowing agent listed in Table 2 is placed in an inner case 8 (60 cm^3 in capacity) fitted in an apparatus (15 cm in diameter and 15 cm in height) provided in its passage 2 with the same ring heater 6 as shown in FIG. 1.
The ring heater 6 (power 400 W) and a fan 4 (with 4 blades) are energized to produce a hot air current. The fan 4 is driven at 3000 r.p.m. The mixture is heated for about 5 minutes (up to a temperature of about 300° C.) with the hot air current to thermally decompose the blowing agent and diffuse the vapor of the insecticide. […]

CC(C)=CC1C(C(=O)OCc2coc(Cc3ccccc3)c2)C1(C)C (stereo not shown) [Specimen 27]
effective fugacity rate: 0.4%
